According to patent US3962282A, “Juvenile hormone mimics” (priority 1974, dated 1976):
“And” between values parts separate entries of the source, which are not always exact repeats. Identical values can stand only once.

What was measured:
[1] = system: cockroach nymphs (Blattella germanica); test: German cockroach nymphs in treated glass jars; assay type: in vivo; details: for reproduction: four months
Protocol: Test jars were prepared by adding 2 ml. of an acetone solution containing 10 mg., 20 mg., or 100 mg. of 2,6-dimethyl-9-(3,4-methylenedioxyphenyl)-2,6-nonadiene to 1 gallon glass jars and allowing the acetone to evaporate. The jars were equipped with watering bottles, food, and paper towels. There were two jars for each rate of test compound and two jars for nontreated controls. To each jar were added 20 40-day-old cockroach nymphs (Blattella germanica). […] Thus, the nonadiene at 100 mg. had prevented reproduction for 4 months.

[2] = system: Housefly (Musca domestica); test: housefly rearing diet test, percent adult emergence; assay type: in vivo
Protocol: Test compounds were mixed with the rearing diet of houseflys at various levels. The prepared diet was then placed in an 8 oz. drinking cup. Three cups were prepared for each treatment level and three control cups. Housefly eggs (Musca domestica) were placed in each cup and they were maintained at 28°C. for 1 week. Fifty pupae were then removed from each cup and placed in a petri dish. After the control pupae had emerged into adults, the percent emergence in each dish was recorded. The test compounds used were 7,8-epoxy-4-ethyl-8-methyl-1-(3,4-methylenedioxyphenyl)-3-decene, 4,8-dimetyl-1-(3,4-methylenedioxyphenyl)-2,6-nonadiene and 2,6-dichloro-2,6-dimethyl-9-(3,4-methylenedioxyphenyl)nonane.

[3] = system: Melon aphids (Aphis gossypi); test: melon aphids on dipped squash plants; assay type: in vivo; details: 200 ppm, six days
Protocol: Young squash plants were dipped for 30 seconds in aqueous solutions containing 200, 100, and 50 ppm. of 2.6-dimethyl-9-(3,4-methylenedioxyphenyl)-2,6-nonadiene. Three plants were treated at each concentration and three plants were used as controls. After the plants had dried, ten adult aphids (Aphis gossypi) were placed on each plant and allowed to feed. The plants were maintained under laboratory conditions. Twenty-four hours after they were placed on the plants, all adults were removed, leaving young nymphs. Six days after treatment, the total number of aphids on each plant was determined.

aphid nymphs = test: application to aphid nymphs in acetone; assay type: in vivo, Aphis gossypi; details: 3 days
Protocol: In another test, female aphids were placed on young squash plants and allowed to produce young for 24 hours. After 24 hours, all adult aphids were removed from the plants and the young were maintained on the plants for an additional 48-hour period. This gave an aphid nymph population having an age of 48 to 72 hours. To each nymph was applied […]. of a 10 percent, 1 percent, or 0.5 percent solution of 2.6- dimethyl-9-(3,4-methylenedioxyphenyl)-2,6-nonadiene or 7,8-epoxy-4-ethyl-8-methyl-1-(3,4-methylenedioxyphenyl)-3-decene in acetone and the aphid nymphs were transferred to new squash plants and observed for possible effects. Ten nymphs were treated with each concentration of each compound and 10 were treated with acetone alone while 10 were not treated to serve as controls. […] There was only one dead nymph treated with acetone alone and one dead nymph in the nontreated controls.

[4] = system: Mexican bean beetle larvae; test: fumigant and residual activity in jars on Mexican bean beetle larvae; assay type: in vivo
Protocol: Fumigant and residual activity of 2,6-dimethyl-9-(3,4-methylenedioxyphenyl)-2,6-nonadiene was determined in the following manner. One milliliter of a 1 percent, a 0.1 percent or a 0.01 percent solution of the test compound was placed in the bottom of a one pint jar. A control was prepared using just acetone. The acetone was allowed to evaporate and 10 Mexican bean beetle larvae were placed on a screen 5 inches from the bottom. The jar was closed for one week at which time the controls emerge as adults and the treated ones are rated as described above. The larvae are replaced weekly.

CC(C)=CCCC(C)=CCCc1ccc2c(c1)OCO2 [2,6-dimethyl-9-(3,4-methylenedioxyphenyl)-2,6-nonadiene]
state of adults and nymphs ([1]; 10 mg, about 2 1/2 months): normal adults and newly hatched nymphs | state of adults and nymphs ([1]; 20 mg, about 2 1/2 months): normal adults and newly hatched nymphs | duration of prevented reproduction ([1]; 100 mg): 4 months | newly hatched nymphs ([1]; 100 mg, about 2 1/2 months): did not contain newly hatched nymphs | wings of adults ([1]; 100 mg, about 2 1/2 months): all adults in the jars had deformed wings | reproduction ([1]; 100 mg): no reproduction | reproduction ([1]; lower rate jars (10 and 20 mg)): large numbers of newly hatched nymphs | percent adult emergence, Cup 1 ([2]; 100 ppm in diet): 90% | percent adult emergence, Cup 2 ([2]; 100 ppm in diet): 30% | percent adult emergence, Cup 3 ([2]; 100 ppm in diet): 10% | control ([2]; 500 ppm): 100% | percent adult emergence, Cup 1 ([2]; 500 ppm in diet): 0% | percent adult emergence, Cup 2 ([2]; 500 ppm in diet): 0% | percent adult emergence, Cup 3 ([2]; 500 ppm in diet): 0% | number of aphids per plant, Total [3]: 15 and 13 and 22 | dead nymphs (aphid nymphs; 0.5 percent): nine of the ten | dead nymphs (aphid nymphs; 1 percent): all of the nymphs | dead nymphs (aphid nymphs; 10 percent): all of the nymphs | number in rating 0 ([4]; Fifteenth Week, 0.01%): 10 | number in rating 0 ([4]; Fifteenth Week, 0.1%): 10 | number in rating 3 ([4]; Fifteenth Week, 1%): 10 | number in rating 0 ([4]; Fifth Week, 0.01%): 10 | number in rating 3 ([4]; Fifth Week, 0.1%): 10 | number in rating 3 ([4]; Fifth Week, 1%): 10 | number in rating 0 ([4]; First Week, 0.01% (0.1 mg.)): 5 | number in rating 2 ([4]; First Week, 0.01% (0.1 mg.)): 1 | number in rating 3 ([4]; First Week, 0.01% (0.1 mg.)): 4 | number in rating 3 ([4]; First Week, 0.1% (1 mg.)): 10 | number in rating 2 ([4]; First Week, 1% (10 mg.)): 1 | number in rating 3 ([4]; First Week, 1% (10 mg.)): 9 | number in rating 0 ([4]; Second Week, 0.01%): 4 | number in rating 2 ([4]; Second Week, 0.01%): 2 | number in rating 3 ([4]; Second Week, 0.01%): 4 | number in rating 3 ([4]; Second Week, 0.1%): 10 | number in rating 0 ([4]; Second Week, 1%): 1 | number in rating 3 ([4]; Second Week, 1%): 10 | number in rating 0 ([4]; Tenth Week, 0.01%): 10 | number in rating 0 ([4]; Tenth Week, 0.1%): 5 | number in rating 1 ([4]; Tenth Week, 0.1%): 2 | number in rating 2 ([4]; Tenth Week, 0.1%): 1 | number in rating 3 ([4]; Tenth Week, 0.1%): 2 | number in rating 3 ([4]; Tenth Week, 1%): 10 | number in rating 3 ([4]; Twenty-second Week, 1%): 10
